ChEMBL document CHEMBL5143615, “Novel 2-aryl-4-aryloxyquinoline-based fungistatics for Mucor circinelloides. Biological evaluation of activity, QSAR and docking study” (Bioorg Med Chem Lett, 2022)

Tested on: Mucor circinelloides
Assay: Antifungal activity against Mucor circinelloides R7B wild type strain assessed as reduction in spore germination at 100 ug/ml relative to control
Type: functional
Set-up: scale not given: the % may be the effect or the level left
Conditions: dose 100 µg/ml

Compared with `Clc1ccc(-c2cc(Oc3ccccc3)c3ccccc3n2)cc1`, `COc1ccc(-c2cc(Oc3ccccc3)c3ccccc3n2)cc1` is higher in Activity: 36.1% for the first, 94.3% for the second.

First: Cc1cc(C)cc(-c2ccc3ccccc3n2)c1
Second: c1ccc(-c2ccc3ccccc3n2)cc1 [2-PHENYLQUINOLINE]
The Activity of the first is lower: 84.9% for the first, 98.1% for the second.

First: O=[N+]([O-])c1ccc(Oc2cc(-c3cccc(C(F)(F)F)c3)nc3ccccc23)cc1
Second: Cc1cccc(-c2cc(Oc3ccc([N+](=O)[O-])cc3)c3ccccc3n2)c1
The Activity of the first is lower: 32.8% for the first, 98.1% for the second.

For `O=[N+]([O-])c1ccc(Oc2cc(-c3ccc(Cl)cc3)nc3ccccc23)cc1`, the Activity was 81.7%.

Tested on: Mucor circinelloides
Assay: Antifungal activity against Mucor circinelloides M5 strain assessed as reduction in spore germination at 100 ug/ml relative to control
Type: functional
Set-up: scale not given: the % may be the effect or the level left
Conditions: dose 100 µg/ml

First: Clc1ccc(-c2cc(Oc3ccccc3)c3ccccc3n2)cc1
Second: COc1ccc(-c2cc(Oc3ccccc3)c3ccccc3n2)cc1
The Activity of the first is lower: 32.3% for the first, 92.1% for the second.

Compared with `Cc1cc(C)cc(-c2ccc3ccccc3n2)c1`, `c1ccc(-c2ccc3ccccc3n2)cc1` [2-PHENYLQUINOLINE] is higher in Activity: 87.6% for the first, 98.2% for the second.

First: O=[N+]([O-])c1ccc(Oc2cc(-c3cccc(C(F)(F)F)c3)nc3ccccc23)cc1
Second: Cc1cccc(-c2cc(Oc3ccc([N+](=O)[O-])cc3)c3ccccc3n2)c1
The Activity of the first is lower: 29.7% for the first, 98.1% for the second.

Work on `O=[N+]([O-])c1ccc(Oc2cc(-c3ccc(Cl)cc3)nc3ccccc23)cc1` yielded an Activity of 82.9%.
